# Patent US5461035A, “Short peptides with insulin activity” (priority 1990, dated 1995)
# Residues, ends and D or L forms follow the SMILES beside them.
# Key:
# Rat lipocytes [1] = assay: Esterification in vitro of glycerol 3-phosphate in saponin-permeabilized lipocytes; assay type: cell-based
# Protocol: This test measures the esterification of glycerol 3-phosphate which can be stimulated by insulin in lipid products (triglycerides, phospholipids). The enzymes of lipid synthesis (for example acyl-CoA: L-glycerol 3-phosphate acyltransferase) are involved in this, including a functional insulin signal-transmission cascade. […] The incubation is continued after addition of L-[U-^14 C]-glycerol 3-phosphate. Toluene-soluble scintillation cocktail is added and the lipid is separated from the aqueous phase by centrifugation. The toluene phase containing the lipid is removed and its radioactivity is determined.
# Rat lipocytes [2] = assay: Glucose transport, 2-deoxy-D-[1-3H]-glucose, rat lipocytes; assay type: cell-based; conditions: glucose 0.2 mM
# Protocol: Epididymal adipose tissue (Wistar rat, 160-180 g, no feed restriction) is digested with collagenase, and the resulting single lipocytes are washed several times by flotation. Lipocytes and pieces of diaphragm are prepared as in Example 5. The following tests measure exclusively the specific glucose transport which can be stimulated by insulin (facilitated diffusion) through the plasma membrane by means of glucose carriers, including the insulin signal-transmission cascade. Any effect of glucose metabolism on glucose transport is ruled out by using the non-metabolizable glucose analog. a) Rat lipocytes are incubated in the presence or absence of insulin or peptide with 2-deoxy-D-[1-^3 H]-glucose (final concentration of D-glucose 0.2 mM) and L-[1-^14 C]-glucose (not transportable). To determine the radioactivity ([^3 H] and [^14 C]) the cells are separated from the medium by centrifugation through an oil layer. The specific stereoselective glucose transport is calculated as the difference between the total cell-bound radioactivity ([^3 H]-glucose) and the associated radioactivity due to diffusion and non-specific effects ([C]-glucose).
# Rat lipocytes [3] = assay: Lipogenesis in trypsin-treated rat lipocytes (insulin receptor inactivated); assay type: cell-based
# Protocol: Rat lipocytes from Example 5 are treated with low concentrations of trypsin to inactivate the insulin receptor by proteolysis. After addition of protease inhibitors, the cells are washed twice by flotation, and the incubation is continued at 37° C. for 15 min. These cells are then used for the test of stimulation of lipogenesis by the peptides. […] This means that this test measures stimulation of lipogenesis owing to interventions in the insulin signal-transmission cascade after receptor binding of insulin.
# Pieces of diaphragm [4] = assay: Glucose uptake, D-[U-14C]-glucose, pieces of diaphragm; assay type: cell-based, rat; conditions: D-glucose 75 μM
# Protocol: (§1) The biological activity of the peptides according to the invention, of the formula I and II, is determined using lipocytes and pieces of diaphragm obtained by dissection from rats. The term tripeptide means Tyr Cys Asn-OH and hexapeptide means acetyl-Leu Glu Asn Tyr Cys Asn-OH. The term "baseline" means the activity without stimulation, insulin means human insulin and dpm means radioactive disintegrations per minute. The term peptid denotes peptides having insulin activity according to the present invention. Rat lipocytes were prepared as follows:
# (§2) Preparation of pieces of diaphragm from rats: small pieces of tissue (5 mm diameter) are punched out of hemidiaphragms (Wistar rat, 60-70 g, no feed restriction) washed several times.
# (§3) The two following tests measure the glucose uptake which can be stimulated by insulin and which requires the functional insulin signal-transmission cascade and glucose transport, irrespective of whether glucose is metabolized by oxidation (glycolysis, pentose phosphate pathway) or not by oxidation. The conversion into lipids, glycogen or membrane-impermeable intermediates (glucose 6-phosphate), but not the production of lactate, is followed.
# b) Pieces of diaphragm are incubated in the presence or absence of insulin or peptide with D-[U-^14 C]-glucose (final concentration of D-glucose 75 μM). The medium is aspirated out. The pieces of tissue are washed several times and subsequently solubilized by alkali treatment for the determination of radioactivity.
# Rat lipocytes [5] = assay: Glucose uptake, D-[U-14C]-glucose, rat lipocytes; assay type: cell-based; conditions: D-glucose 22 μM
# Protocol: as §1
# Epididymal adipose tissue (Wistar rat, 160-180 g, no feed restriction) is digested with collagenase, and the resulting single lipocytes are washed several times by flotation.
# as §3
# a) Rat lipocytes are incubated in the presence or absence of insulin or peptide with D-[U-^14 C]-glucose (final concentration of D-glucose 22 μM). The cells are separated from the medium by centrifugation through a silicone oil layer and are reisolated, and the cell-associated radioactivity is determined.
# Pieces of diaphragm [6] = assay: Glucose transport, 2-deoxy-D-[1-3H]-glucose, pieces of diaphragm; assay type: cell-based, rat; conditions: glucose 0.1 mM
# Protocol: as §2
# Lipocytes and pieces of diaphragm are prepared as in Example 5. The following tests measure exclusively the specific glucose transport which can be stimulated by insulin (facilitated diffusion) through the plasma membrane by means of glucose carriers, including the insulin signal-transmission cascade. Any effect of glucose metabolism on glucose transport is ruled out by using the non-metabolizable glucose analog.
# b) Pieces of diaphragm are incubated in the presence or absence of insulin or peptide with 2-deoxy-D-[1-^3 H]-glucose (final concentration of D-glucose 0.1 mM) and L-[1-^14 C]-glucose. The pieces of tissue are separated from the medium by rapid filtration through glass fiber filters and are thoroughly washed. The radioactivity is measured in an alkaline extract.
# Balb-C mice = assay: Blood glucose profile in mice; assay type: in vivo; conditions: intravenous
# Protocol: Female Charles River Wiga Balb-C mice weighing 17 to 21 g (about 30 days old) receive a standard diet. The mice receive no food for 16 hours before the start of the experiment. 5 animals in each experimental group receive intravenous administration of an aqueous solution (pH 6) of the compound from Example 4 (octapeptide). Volume administered 0.3 ml/animal.
# The average for each experimental group is indicated in each case.
molecule,measurement,setting,value
"NC(=O)C[C@H](NC(=O)[C@H](CS)NC(=O)[C@@H](N)Cc1ccc(O)cc1)C(=O)O [Tripeptide, H-Tyr-Cys-Asn-OH] (H-Tyr-Cys-Asn-OH)",Esterification with lipocytes,Rat lipocytes [1]; peptide 0.5 mM,4422 dpm
same,Esterification with lipocytes,Rat lipocytes [1]; peptide 0.1 Mm,3710 dpm
same,Esterification with lipocytes,Rat lipocytes [1]; peptide 1 Mm,5398 dpm
same,Glucose transport,Rat lipocytes [2]; peptide 0.1 Mm,2289 dpm
same,Glucose transport,Rat lipocytes [2]; peptide 0.5 Mm,3055 dpm
same,Glucose transport,Rat lipocytes [2]; peptide 1 Mm,5781 dpm
same,Lipogenesis,Rat lipocytes [3]; peptide 0.5 mM,4145 dpm
same,Lipogenesis,Rat lipocytes [3]; peptide 0.1 Mm,3250 dpm
same,Lipogenesis,Rat lipocytes [3]; peptide 1 Mm,5072 dpm
same,Glucose uptake,Pieces of diaphragm [4]; peptide 0.1 Mm,7591 dpm
same,Glucose uptake,Pieces of diaphragm [4]; peptide 0.5 Mm,8540 dpm
same,Glucose uptake,Pieces of diaphragm [4]; peptide 1 Mm,11588 dpm
same,Glucose uptake,Rat lipocytes [5]; peptide 0.1 Mm,1838 dpm
same,Glucose uptake,Rat lipocytes [5]; peptide 0.5 Mm,2947 dpm
same,Glucose uptake,Rat lipocytes [5]; peptide 1 Mm,6533 dpm
same,Glucose transport,Pieces of diaphragm [6]; peptide 0.1 Mm,8836 dpm
same,Glucose transport,Pieces of diaphragm [6]; peptide 0.5 Mm,9822 dpm
same,Glucose transport,Pieces of diaphragm [6]; peptide 1 Mm,11252 dpm
"Ac-LENYCN-OH [Hexapeptide, Acetyl-Leu-Glu-Asn-Tyr-Cys-Asn-OH]",Glucose transport,Rat lipocytes [2]; peptide 0.1 Mm,2218 dpm
same,Glucose transport,Rat lipocytes [2]; peptide 0.5 Mm,2842 dpm
same,Glucose transport,Rat lipocytes [2]; peptide 1 Mm,3922 dpm
same,Glucose uptake,Pieces of diaphragm [4]; peptide 0.1 Mm,7429 dpm
same,Glucose uptake,Pieces of diaphragm [4]; peptide 0.5 Mm,7752 dpm
same,Glucose uptake,Pieces of diaphragm [4]; peptide 1 Mm,8597 dpm
same,Glucose uptake,Rat lipocytes [5]; peptide 0.1 Mm,1488 dpm
same,Glucose uptake,Rat lipocytes [5]; peptide 0.5 Mm,1917 dpm
same,Glucose uptake,Rat lipocytes [5]; peptide 1 Mm,4218 dpm
same,Glucose transport,Pieces of diaphragm [6]; peptide 0.1 Mm,8450 dpm
same,Glucose transport,Pieces of diaphragm [6]; peptide 0.5 Mm,8928 dpm
same,Glucose transport,Pieces of diaphragm [6]; peptide 1 Mm,9676 dpm
H-Tyr(Bu^t)-Gln-Leu-Glu(OBu^t)-Asn-Tyr(Bu^t)-Cys(Trt-Asn-Obu^t.HBr [Octapeptide],"Blood glucose level, percentage difference to control group","Balb-C mice; 500 μg/animal, 20 minutes",-2%
same,"Blood glucose level, percentage difference to control group","Balb-C mice; 500 μg/animal, 40 minutes",-5%
same,"Blood glucose level, percentage difference to control group","Balb-C mice; 500 μg/animal, 60 minutes",-13%
same,"Blood glucose level, percentage difference to control group","Balb-C mice; 500 μg/animal, 75 minutes",-21%
same,"Blood glucose level, percentage difference to control group","Balb-C mice; 500 μg/animal, 90 minutes",-21%
same,"Blood glucose level, percentage difference to control group","Balb-C mice; 1000 μg/animal, 20 minutes",-31%
same,"Blood glucose level, percentage difference to control group","Balb-C mice; 1000 μg/animal, 40 minutes",-19%
same,"Blood glucose level, percentage difference to control group","Balb-C mice; 1000 μg/animal, 60 minutes",-23%
same,"Blood glucose level, percentage difference to control group","Balb-C mice; 1000 μg/animal, 75 minutes",-24%
same,"Blood glucose level, percentage difference to control group","Balb-C mice; 1000 μg/animal, 90 minutes",-19%
Insulin: insulin means human insulin,Esterification with lipocytes,Rat lipocytes [1]; insulin 5 ng,3640 dpm
same,Glucose transport,Rat lipocytes [2]; insulin 0.5 ng,4851 dpm
same,Glucose transport,Rat lipocytes [2]; insulin 5 ng,20342 dpm
same,Lipogenesis,Rat lipocytes [3]; insulin 5 ng,3087 dpm
same,Glucose uptake,Pieces of diaphragm [4]; insulin 0.5 ng,10055 dpm
same,Glucose uptake,Pieces of diaphragm [4]; insulin 5 ng,20841 dpm
same,Glucose uptake,Rat lipocytes [5]; insulin 0.5 ng,4379 dpm
same,Glucose uptake,Rat lipocytes [5]; insulin 5 ng,26312 dpm
same,Glucose transport,Pieces of diaphragm [6]; insulin 0.5 ng,10828 dpm
same,Glucose transport,Pieces of diaphragm [6]; insulin 5 ng,17750 dpm
